In this test the target is human μ-opiate receptor (Homo sapiens, UniProt P35372). Put plainly: Affinity for the human μ-opiate receptor ([3H]-naloxone displacement, SPA, CHO-K1 membrane preparation). The test is classed as binding. The note with it: for inhibition at 1 µM: read-out: μ-Opioid receptor, % inhibition [1 μM]; for Ki: read-out: μ-Opioid receptor, Ki.
Sequence of human μ-opiate receptor (P35372 whole entry): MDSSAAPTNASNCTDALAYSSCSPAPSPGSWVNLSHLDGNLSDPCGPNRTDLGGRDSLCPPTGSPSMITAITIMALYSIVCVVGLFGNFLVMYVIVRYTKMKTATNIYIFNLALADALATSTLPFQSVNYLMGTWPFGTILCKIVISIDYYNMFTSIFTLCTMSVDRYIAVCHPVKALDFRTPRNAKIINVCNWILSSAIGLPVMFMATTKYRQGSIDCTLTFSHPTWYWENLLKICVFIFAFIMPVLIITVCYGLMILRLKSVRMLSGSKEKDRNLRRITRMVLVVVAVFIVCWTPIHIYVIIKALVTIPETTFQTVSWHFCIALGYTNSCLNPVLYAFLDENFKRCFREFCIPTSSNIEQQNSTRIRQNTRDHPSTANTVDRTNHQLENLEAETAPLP

What is called inhibition is the drop in the measured response relative to a control, in per cent. What is called Ki is a dissociation constant, usually derived from enzyme kinetics or from competition with a known ligand. Take `CN(C)C(c1ccccc1)C1CCC(NC(=O)c2cc(F)cc(C(F)(F)F)c2)CC1` (stereo not shown) [compound 190, N-[4-(dimethylamino-phenyl-methyl)-cyclohexyl]-3-fluoro-5-trifluoromethyl-benzamide]: the inhibition at 1 µM turned out to be 99% and the Ki was 0.025 µM. In the case of `COc1c(C(=O)NC2CCC(C(c3cccc(F)c3)N(C)C)CC2)csc1Cl` (stereo not shown) [compound 191, 5-chloro-4-methoxy-thiophene-3-carboxylic acid {4-[dimethylamino-(3-fluoro-phenyl)-methyl]-cyclohexyl}-amide], the inhibition at 1 µM is 99%. On to `CN(C)C(c1cccs1)C1CCC(NC(=O)c2ccc(F)c(C(F)(F)F)c2)CC1` (stereo not shown) [compound 192, N-[4-(dimethylamino-thiophen-2-yl-methyl)-cyclohexyl]-4-fluoro-3-trifluoromethyl-benzamide], for which the inhibition at 1 µM amounted to 98% and the Ki came out at 0.018 µM. For `CN(C)C(c1cccs1)C1CCC(NC(=O)c2cccs2)CC1` (stereo not shown) [compound 193, thiophene-2-carboxylic acid [4-(dimethylamino-thiophen-2-yl-methyl)-cyclohexyl]-amide], the inhibition at 1 µM was 96% and the inhibition constant Ki was determined as 0.023 µM. Consider `CN(C)C(c1cccs1)C1CCC(NC(=O)c2cc(Cl)cc(Cl)c2)CC1` (stereo not shown) [compound 194, 3,5-dichloro-N-[4-(dimethylamino-thiophen-2-yl-methyl)-cyclohexyl]-benzamide], for which the inhibition at 1 µM turned out to be 96% and the Ki was found to be 0.0053 µM. With `COc1c(C(=O)NC2CCC(C(c3cccs3)N(C)C)CC2)csc1Cl` (stereo not shown) [compound 195, 5-chloro-4-methoxy-thiophene-3-carboxylic acid [4-(dimethylamino-thiophen-2-yl-methyl)-cyclohexyl]-amide], the inhibition at 1 µM is 96% and the inhibition constant (Ki) turned out to be 0.015 µM. Consider `CN(C)C(c1ccccc1)C1CCC(NC(=O)c2cc(F)c(F)cc2F)CC1` (stereo not shown) [compound 196, N-[4-(dimethylamino-phenyl-methyl)-cyclohexyl]-2,4,5-trifluoro-benzamide], for which the inhibition at 1 µM was 96% and the Ki was 0.019 µM. In the case of `CN(C)C(c1ccccc1)C1CCC(NC(=O)c2cccc(Br)c2)CC1` (stereo not shown) [compound 197, 3-bromo-N-[4-(dimethylamino-phenyl-methyl)-cyclohexyl]-benzamide], the inhibition at 1 µM came out at 96% and the Ki turned out to be 0.016 µM.

Regarding `Cc1ccc(C(=O)NC2CCC(C(c3cccs3)N(C)C)CC2)cc1` (stereo not shown) [compound 198, N-[4-(dimethylamino-thiophen-2-yl-methyl)-cyclohexyl]-4-methyl-benzamide], the inhibition at 1 µM was 95% and the Ki was found to be 0.015 µM. In the case of `COc1cccc(C(=O)NC2CCC(C(c3cccs3)N(C)C)CC2)c1` (stereo not shown) [compound 199, N-[4-(dimethylamino-thiophen-2-yl-methyl)-cyclohexyl]-3-methoxy-benzamide], the inhibition at 1 µM came to 94% and the inhibitory constant (Ki) was determined as 0.021 µM.

Take `CN(C)C(c1cccs1)C1CCC(NC(=O)CC(C)(C)C)CC1` (stereo not shown) [compound 200, N-[4-(dimethylamino-thiophen-2-yl-methyl)-cyclohexyl]-3,3-dimethyl-butyramide]: the inhibition at 1 µM turned out to be 94% and the Ki was determined as 0.029 µM.

For the compound `Cc1cc(C(=O)NC2CCC(C(c3cccs3)N(C)C)CC2)n(C(C)(C)C)n1` (stereo not shown) [compound 201, 2-tert-butyl-5-methyl-2H-pyrazole-3-carboxylic acid [4-(dimethylamino-thiophen-2-yl-methyl)-cyclohexyl]-amide], the inhibition at 1 µM was 94% and the Ki amounted to 0.016 µM. As for `COc1ccc(C(=O)NC2CCC(C(c3cccs3)N(C)C)CC2)c(OC)c1` (stereo not shown) [compound 202, N-[4-(dimethylamino-thiophen-2-yl-methyl)-cyclohexyl]-2,4-dimethoxy-benzamide], the inhibition at 1 µM was found to be 94% and the Ki amounted to 0.031 µM. For the compound `CN(C)C(c1ccccc1)C1CCC(NC(=O)c2cccc(C(F)(F)F)c2)CC1` (stereo not shown) [compound 203, N-[4-(dimethylamino-phenyl-methyl)-cyclohexyl]-3-trifluoromethyl-benzamide], the inhibition at 1 µM was 94% and the inhibition constant Ki turned out to be 0.051 µM.

On to `CN(C)C(c1cccc(F)c1)C1CCC(NC(=O)c2cc(F)cc(F)c2)CC1` (stereo not shown) [compound 204, N-{4-[dimethylamino-(3-fluoro-phenyl)-methyl]-cyclohexyl}-3,5-difluoro-benzamide], for which the inhibition at 1 µM was 94% and the Ki is 0.018 µM. As to `CN(C)C(c1ccccc1)C1CCC(NC(=O)c2cc(C(F)(F)F)ccc2F)CC1` (stereo not shown) [compound 205, N-[4-(dimethylamino-phenyl-methyl)-cyclohexyl]-2-fluoro-5-trifluoromethyl-benzamide], the inhibition at 1 µM worked out at 94% and the Ki worked out at 0.022 µM.

`CN(C)C(c1ccccc1)C1CCC(NC(=O)Cc2ccc(Cl)cc2)CC1` (stereo not shown) [compound 206, 2-(4-chloro-phenyl)-N-[4-(dimethylamino-phenyl-methyl)-cyclohexyl]-acetamide]: the inhibition at 1 µM amounted to 93% and the Ki came out at 0.056 µM. As to `COc1ccccc1C(=O)NC1CCC(C(c2cccs2)N(C)C)CC1` (stereo not shown) [compound 207, N-[4-(dimethylamino-thiophen-2-yl-methyl)-cyclohexyl]-2-methoxy-benzamide], the inhibition at 1 µM is 92% and the Ki was found to be 0.028 µM. For `CSc1ncccc1C(=O)NC1CCC(C(c2cccs2)N(C)C)CC1` (stereo not shown) [compound 208, N-[4-(dimethylamino-thiophen-2-yl-methyl)-cyclohexyl]-2-methylsulfanyl-nicotinamide], the inhibition at 1 µM was 92% and the Ki came to 0.13 µM. As for `CN(C)C(c1cccc(F)c1)C1CCC(NC(=O)c2ccc(Cl)c(Cl)c2)CC1` (stereo not shown) [compound 209, 3,4-dichloro-N-{4-[dimethylamino-(3-fluoro-phenyl)-methyl]-cyclohexyl}-benzamide], the inhibition at 1 µM was 92% and the Ki turned out to be 0.047 µM. Turning to `COc1c(C(=O)NC2CCC(C(c3ccc(F)cc3)N(C)C)CC2)csc1Cl` (stereo not shown) [compound 211, 5-chloro-4-methoxy-thiophene-3-carboxylic acid {4-[dimethylamino-(4-fluoro-phenyl)-methyl]-cyclohexyl}-amide], the inhibition at 1 µM amounted to 92%. With `COc1cc(C(=O)NC2CCC(C(c3cccs3)N(C)C)CC2)cc(OC)c1OC` (stereo not shown) [compound 212, N-[4-(dimethylamino-thiophen-2-yl-methyl)-cyclohexyl]-3,4,5-trimethoxy-benzamide], the inhibition at 1 µM was found to be 91% and the inhibition constant (Ki) was 0.019 µM. As for `CCSc1ncccc1C(=O)NC1CCC(C(c2cccs2)N(C)C)CC1` (stereo not shown) [compound 213, N-[4-(dimethylamino-thiophen-2-yl-methyl)-cyclohexyl]-2-ethylsulfanyl-nicotinamide], the inhibition at 1 µM is 91% and the Ki is 0.096 µM. Consider `Cc1oc(-c2ccccc2)cc1C(=O)NC1CCC(C(c2ccccc2)N(C)C)CC1` (stereo not shown) [compound 214, 2-methyl-5-phenyl-furan-3-carboxylic acid [4-(dimethylamino-phenyl-methyl)-cyclohexyl]-amide], for which the inhibition at 1 µM worked out at 91% and the Ki stood at 0.028 µM.
